Reference: patent US20230390326A1, “COMPOSITION COMPRISING CATIONIC SUBSTANCE, AND USE FOR SAME” (SUNGKWANG MEDICAL FOUNDATION, priority 2020, published 2023)
Peptide text beside a SMILES is read from it. * marks the point of attachment. Cbz = O=C(OCc1ccccc1)*

Key:
perforin protein = test: Western blot of perforin protein in cultured NK cells; type: cell-based; settings: NK cells treated with MG132 to prevent intracellular protein degradation
Protocol: Protein extracts from NK cells were separated using 10% SDS-PAGE, and transferred to a polyvinylidene difluoride amersham Biosciences membrane for 90 minutes at the voltage of 120 V. The membrane was blocked in 3% bovine serum albumin (BSA)-containing tris-buffered saline-Tween [TBST; 0.2 M NaCl, 0.1% Tween-20, and 10 mM Tris (pH 7.4)] for 1 hour. The blocked membrane was incubated with a rabbit polyclonal anti-Perforin antibody (1:1000; ab180773, abcam) or a rabbit monoclonal anti-GAPDH antibody (1:1000; […], Cell signaling). After incubation, the membrane was incubated with anti-rabbit polyclonal IgG (1:5000; #7074, Cell Signaling Technology) for 1 hour at room temperature. After each step, the membrane was washed several times using TBST and bound antibodies were detected using an enhanced chemiluminescence detection system (Thermo Fisher Scientific Biosciences) according to manufacturer instructions In order to determine whether […] increases the amount of intracellular perforin, the NK cells of Example 1 were treated with 5 μg/ml of polyethylenimine, and cultured over time (0 hour, 3 hour, 6 hour, 12 hours, 24 hours, or 48 hours), and then Western blotting was performed on the cultured NK cells to identify the amount of granzyme B and perforin protein. […]

[1] = tested on: triple negative breast cancer cell line MDA_MB231; test: In vitro assay of inducing activity of natural killer cells (CFSE-7AAD assay, apoptosis of target cells); type: cell-based; settings: NK cells cultured 48 hours with the substance, then mixed with MDA_MB231 at E:T 10:1 for 4 hours; target only 1.32, NK cells only 21.36
Protocol: Green fluorescence-labeled MDA MB 231 cells and NK cells were put into a 1.5 ml eppendorf tube in respective ratios, mixed, and reacted in a 37° C., CO2 5% incubator for 4 hours. After the reaction was over, the cells were stained with 7AAD (Invitrogen A1310) for 20 minutes and fixed. Through flow cytometry, the mixed cells were divided into two cell populations according to the presence or absence of green fluorescence, and the percentage of dead cells was measured and compared by group to analyze the activity.
In order to confirm the ability of […] to induce the activity of NK cells according to molecular weight and type, the NK cells of Example 1 were cultured for 48 hours after mixing with various molecular weights and types of polyethylenimine or with a control group.
Next, the cultured NK cells were washed, and re-suspended in a fresh culture medium. Thereafter, the NK cells and triple negative breast cancer cell line MDA_MB231 were mixed in an effector (E):target (T) ratio of 10:1 and cultured for 4 hours. Finally, the degree of apoptosis of the target cells in the cultured cells was quantitatively analyzed using the CFSE-7AAD assay.

Q: How did the “amount of perforin protein” value (perforin protein) turn out when CC(C)C[C@@H](C=O)NC(=O)[C@H](CC(C)C)NC(=O)[C@H](CC(C)C)NC(=O)OCc1ccccc1 [MG132] (Cbz-Leu-Leu-Leu-aldehyde) was run?
A: Its value is “increased”.

Q: For Protamine, which “degree of apoptosis of target cells” value [1] is on record?
A: Its value is 25.31.
